Experimental data reported in a melting point compilation (Tetko et al.; mined from patent text by program, amines drawn as free bases though some values may be those of a salt).

Compound `CCOC(=O)c1c(N)nc(-c2ccc([N+](=O)[O-])cc2)c([N+](=O)[O-])c1C(=O)OCC` has a melting point of 148 to 150 °C.
Work on `CCCCCC(=O)OCn1cc(F)c(=O)[nH]c1=O` yielded a melting point of 95 to 96 °C.
Work on `CCCc1c(O)c(C(C)=O)c(C)c2c1OC(C)(C)CC2C` (stereo not given) yielded a melting point of 74 to 75 °C.
In the case of `CCCc1nc2c(N)nc3cc(OCc4ccc(F)cc4)ccc3c2s1`, the melting point is reported as 189 to 192 °C.
`CCC(NC(=O)c1c(NC(C)=O)c(NC(C)=O)cc2c1OCCO2)N1CCCCC1` (stereo not given) showed a melting point greater than 260 °C.
With `C=C(C)C(=O)Oc1ccc(S(=O)(=O)ON=C2CCCc3ccccc32)cc1` the melting point was 108 to 109 °C.
In the case of `O=C1c2cccc(O)c2N=CC2CCCN12` (stereo not given), the melting point is reported as 146 to 148 °C.
In the case of `O=C(O)C1c2ccccc2COc2ccc(Cl)cc21` (stereo not given), the melting point is reported as 182 to 183 °C.
`COc1cccc([C@H]2O[C@H](CC(=O)Nc3nc(C)c(C(=O)O)s3)C(=O)N(CC(C)(C)CO)c3ccc(Cl)cc32)c1OC` showed a melting point of 251 to 252 °C.
Compound `COCc1cc([N+](=O)[O-])ccc1OCc1ccccc1` has a melting point of 108 °C.
Compound `C=CC1(CC(N)=O)CC(C)(C)CC(C)(C)C1` has a melting point of 44 to 46 °C.
With `O=C(c1ccccc1Cl)c1cc(Cl)ccc1-n1cnnc1CCl` the melting point was 139 to 140 °C.
Work on `COc1ccc(C(=O)c2ccccc2)cc1OC1CCCC1` yielded a melting point of 73.5 to 75 °C.
`FC1CC(Nc2ncnc3[nH]ncc23)CCC1OCC(F)(F)c1ccccc1` (stereo not given) showed a melting point of 178 to 179 °C.
Compound `CC(C)(C)[Si](C)(C)OC1CN(c2ccc(N3C[C@H](CO)OC3=O)cc2F)C1` has a melting point of 183 to 186 °C.
For `CCCc1ccc(S(=O)(=O)Nc2ccc3nc(C)ccc3c2)cc1`, the melting point was 174 °C.
`c1coc(-c2n[nH]c3c2Cc2ccccc2-3)c1` gave a melting point of 195 to 197 °C.
For `COCn1cc2cc(C)c(NC(=O)c3cc(OC)nn3-c3ncccc3Cl)c(C(=O)NC(C)C)c2n1`, the melting point was 148 °C.
In the case of `CC(=O)Nc1cccc2c1C(=O)c1c-2n[nH]c1-c1cccs1`, the melting point is reported as 269 °C.
`O=C(CCc1ccc(NC2=NCCN2)cc1)c1ccc(N2CCOCC2)cc1F` gave a melting point of 168 to 171 °C.
For `OC1CSC(Oc2cnccc2-c2ccc(C(F)(F)F)cc2)C(O)C1O` (stereo not given), the melting point was 204 °C.
For `O=c1c(Cl)c(N2CCOCC2)oc2ccccc12`, the melting point was 127 to 128 °C.
`N#CC(NC(=O)C(F)(F)C(F)(F)C(F)(F)F)c1ccc(Cl)cc1` (stereo not given) gave a melting point of 93 to 95 °C.
In the case of `CC(SC1COC(c2cccc(C(=O)Nc3ccc(Cl)cc3)c2)OC1)C(O)(Cn1cncn1)c1ccc(F)cc1F` (stereo not given), the melting point is reported as 90 °C.
Compound `CCOC(=O)c1cccc(NC(=O)c2ccc(OC)c(Nc3cccc(C(F)(F)F)c3)c2)c1` has a melting point of 169 to 170 °C.
For `CCOC(=O)C1=C(COCC=NO)NC(C)=C(C(=O)OC)C1c1ccccc1Cl` (stereo not given), the melting point was 161 to 162 °C.
Work on `CCCCCCCCCCCCCCCCCCNC(=O)OCC(CNS(=O)(=O)CCCCl)NC(=O)NC` (stereo not given) yielded a melting point of 87 to 90 °C.
In the case of `CCCc1nc(N)c(C#N)[nH]1`, the melting point is reported as 117 to 119 °C.
In the case of `C/C(=N\O)c1cccc(-c2nc3sccn3c2-c2ccnc(N[C@@H]3CCCN(S(=O)(=O)c4ccc(Cl)cc4)C3)n2)c1`, the melting point is reported as 156 to 158 °C.
In the case of `NCC1CCN(c2c(F)cc3c(=O)c(C(=O)O)cn(C4CC4)c3c2F)C1` (stereo not given), the melting point is reported as 232 to 235 °C.
In the case of `Nc1ncc(-c2ccc(=O)n(Cc3ccccc3)n2)c(-c2ccccc2)n1`, the melting point is reported as 229 to 230 °C.
In the case of `COC(=O)COC(=O)C(C)c1ccc2cc(O)ccc2c1` (stereo not given), the melting point is reported as 84.5 to 87 °C.
Work on `C[C@H](O)c1nnc(-c2ccc3occ(-c4cc(F)ccc4Cl)c3c2)o1` yielded a melting point of 204 to 205 °C.
With `COC(=O)c1nc(NCC(O)CO)cnc1[N+](=O)[O-]` (stereo not given) the melting point was 107 to 109 °C.
With `CCCOc1ccc2nc(NC(=O)OC)sc2c1` the melting point was 178 to 180 °C.
In the case of `O=C(O)CC(CC(=O)O)C(F)(F)F`, the melting point is reported as 100 °C.
Compound `CCc1ccccc1S(=O)(=O)c1cc(N)c2ncccc2c1[N+](=O)[O-]` has a melting point of 213 to 216 °C.
`Nc1nc(N)c(-c2cccc3ccccc23)c(C(F)(F)F)n1` showed a melting point of 224 to 226 °C.
For `O=C(CN1CCC(Cc2ccccc2)CC1)Nc1ccc2cn[nH]c2c1`, the melting point was 165 to 169 °C.
Work on `CN(C)CCON=C1c2ccccc2C2CC2c2ccccc21` (stereo not given) yielded a melting point of 69 to 70 °C.
For `NC(=O)CC1CCC(OCc2ccccc2)c2sccc21` (stereo not given), the melting point was 139 to 143 °C.
With `O=C(O)CC1(c2ccccc2)CCCCC1=O` (stereo not given) the melting point was 130 to 132 °C.
`O=C(O)Cn1c(-c2ccccc2)ncc(NC(=O)OCc2ccccc2)c1=O` showed a melting point of 179 to 183 °C.
In the case of `CCNC(=S)N1CCN(c2cncc(OC)n2)CC1`, the melting point is reported as 120 to 122 °C.
With `CCON=C(C(=O)OCC)c1csc(NC(c2ccccc2)(c2ccccc2)c2ccccc2)n1` the melting point was 165 °C.
`COC(=O)c1ccc(OCCNC(=O)C2Cc3ccccc3N2S(=O)(=O)c2ccc(-c3ccc(F)cc3)cc2)c(F)c1` (stereo not given) gave a melting point of 82 to 87 °C.
For `N#Cc1[nH]c2ccc([N+](=O)[O-])cc2c1-c1ccccc1`, the melting point was 242 to 254 °C.
`O=CNC=Cc1cc(O)ccc1O` gave a melting point of 149 to 153 °C.
`CNC(=O)c1sc(NC(C)=O)nc1CCc1ccc(NC(NC(=O)OC(C)(C)C)NC(=O)OC(C)(C)C)cc1` showed a melting point of 245 to 246 °C.
For `CCOc1cc(OCC)c([N+](=O)[O-])c(OCC)c1[N+](=O)[O-]`, the melting point was 105 °C.
Compound `COc1ccc2c(c1)c(CC(=O)O)c(C)n2C(=O)c1ccc(F)cc1` has a melting point of 130 to 132 °C.
`Cc1cc(CCCCCCCOc2ccc(C(N)=O)cc2)on1` gave a melting point of 153 to 154 °C.
For `C=CCOc1ccc(C#N)c(Cl)c1`, the melting point was 50 to 52 °C.
Work on `COc1ccc2c(C(=O)c3cc(OC)c(OC)c(OC)c3)c(-c3ccc(OC)c(O)c3)[nH]c2c1` yielded a melting point of 189 to 190 °C.
With `CCOC(=O)/C=C/C=C/c1cc2cc(N(C)C)ccc2s1` the melting point was 140 to 142 °C.
`N=C(NCc1ccccc1)NN=Cc1c(Cl)cccc1Cl` gave a melting point of 70 to 80 °C.
With `NC(=O)Cc1cc(Oc2ccc3c(ccn3C(=O)Nc3ccc(-c4cccnc4)c(C(F)(F)F)c3)c2)ncn1` the melting point was 171 to 172 °C.
`CCCn1c(=O)c2[nH]c(/C=C/c3cc(OC)cc(OC)c3)nc2n(CCC)c1=O` showed a melting point of 249 to 250 °C.
Work on `Cc1[nH]cnc1CN1CCc2c(c3cccc4c3n2CCCC4)C1=O` yielded a melting point of 215 to 216 °C.
`COCCCCC(O)(c1ccccc1)c1ccccc1` gave a melting point of 112 to 115 °C.
For `Cc1cc(-c2cc(C(F)(F)F)nn2-c2ccc(S(C)(=O)=O)c(F)c2)ccc1-c1cocn1`, the melting point was 141 to 143 °C.
In the case of `COCc1ccc(C(=O)N[C@H](Cc2ccc(C(F)(F)F)cc2)[C@@H](O)c2ccc(F)cc2)c2ccccc12` (racemic), the melting point is reported as 170 to 171 °C.
With `CCc1cccc(CC)c1NC(=O)Nc1oc2ccc(Cl)cc2c1-c1ccccc1C` the melting point was 233 to 234 °C.
Compound `O=C(O)c1cc(OCc2ccccc2)c(-c2ccccc2)c([N+](=O)[O-])c1` has a melting point of 188 to 190 °C.
With `CCCc1cc(-c2noc3cc(O)ccc23)c(CCC)cc1O` the melting point was 162 to 163 °C.
`CC(C)Oc1ccc(Oc2ccc3c(c2)c(C(=O)O)c(CC(=O)O)n3-c2ccc(C(C)C)cc2)cc1` showed a melting point of 205 to 210 °C.
With `CCC(Cc1c(I)cc(I)c(NC(=O)CCl)c1I)C(=O)O` (stereo not given) the melting point was 157 °C.
For `C#Cc1cc(C)c(Oc2ccc(N)c(Nc3ccc(C#N)cc3)n2)c(C)c1`, the melting point was 79 to 82 °C.
`CC1(C)C(Cl)C(=O)C1CC(Br)(Br)Br` (stereo not given) gave a melting point of 87 to 89 °C.
For `CCOC(=O)C(Cc1ccc(OCCNC(=O)c2ccc(-c3ccccc3)cc2)cc1)Oc1ccccc1` (stereo not given), the melting point was 103 to 104 °C.
`Cn1ncc2c(=O)n3c(nc21)SC(C)(C)C3` showed a melting point of 188 °C.
In the case of `Cc1ccc(-c2cccc3c2OC(COS(=O)(=O)c2ccc(C)cc2)C3)cc1` (stereo not given), the melting point is reported as 145 to 147 °C.
Compound `O=C(Nc1nc(-c2ccccc2)cs1)c1ccccc1C(c1ccc(O)cc1)c1ccc(O)cc1` has a melting point of 291 to 292 °C.
With `c1cc2[nH]ncc2cc1NC1CCN(CC2CCCCC2)CC1` the melting point was 179 to 180 °C.
For `CS(=O)(=O)c1ccc(-c2cnn(-c3ccoc3)c(=O)c2-c2ccc(F)cc2)cc1`, the melting point was 239 to 242 °C.
In the case of `Cn1ccc2ccc(O)cc21`, the melting point is reported as 74 °C.
For `COC(=O)/C=C/C=C(\c1ccc(OC)cc1)c1ccccc1OC`, the melting point was 99.5 to 102 °C.
Compound `O=C(CC12CC3CC(CC(C3)C1)C2)Nc1cc(O)ccc1Cl` has a melting point of 224 to 225 °C.
For `C#CCNC(=NCCSCc1nccs1)NC#N`, the melting point was 138 to 140 °C.
`Cc1ncc2n1-c1ccc(Cl)cc1C(c1ccccc1F)NC2` (stereo not given) gave a melting point of 200 to 203 °C.
`CC(=O)OCCSc1nc(C(C)(C)C)n[nH]1` showed a melting point of 114 to 115 °C.
In the case of `NS(=O)(=O)c1ccc(C=O)cc1`, the melting point is reported as 104 to 106 °C.
`O=C(NS(=O)(=O)C=Cc1ccccc1)N1CCC(CCCc2ccc(O)cc2)CC1` showed a melting point of 132 to 135 °C.
Compound `Brc1ccc(OC2CCN(CCc3c[nH]c4ccccc34)CC2)cc1` has a melting point of 132 to 134 °C.
`C=CC(=O)Oc1ccc(NS(C)(=O)=O)cc1` gave a melting point of 136 to 140 °C.
With `CCn1ncc2c(ON=C(C)C)c(C(=O)c3ccccc3)cnc21` the melting point was 115 to 116 °C.
For `COc1cccc(CNc2ccc(C(C)=O)cc2)c1OCCCC(=O)O`, the melting point was 85 to 95 °C.
With `COc1ccc(C2CNC(=O)O2)cc1O` (stereo not given) the melting point was 157 to 160 °C.
In the case of `O=C(Oc1ccc([N+](=O)[O-])cc1)c1ccnc(F)c1`, the melting point is reported as 148 to 150 °C.
Compound `Cc1cc(Cn2nnn(-c3ccc(C(F)(F)F)cc3)c2=O)ccc1NC(=O)c1cccc(I)c1C(=O)NC(C)(C)CS(C)(=O)=O` has a melting point of 108 to 112 °C.
For `CCCc1c(OCCCCCOc2c(C(C)=O)ccc(OCC(=O)O)c2CCC)ccc(C(C)=O)c1O`, the melting point was 86 to 89 °C.
For `CC(O)CCCCCCCc1ccc(O)c(O)c1` (stereo not given), the melting point was 58 to 61 °C.
With `CN1CCCc2cc(CC3SC(=O)NC3=O)ccc21` (stereo not given) the melting point was 122 to 125 °C.
Work on `CCON=Cc1cc(-n2c(=O)cc(C(F)(F)F)[nH]c2=O)c(Cl)cc1Cl` yielded a melting point of 205 to 209 °C.
With `COc1cccc(C2(C(N)=O)CCCCC2)c1` the melting point was 120 to 122 °C.
`COc1ccc(C(=O)CCC(C(=O)c2ccc(OCc3ccccc3)cc2)c2ccc(OC)cc2)cc1` (stereo not given) gave a melting point of 132 to 134 °C.
In the case of `CCCCc1c(C(=O)OCC)cc(O)c2c(OC)cccc12`, the melting point is reported as 80 to 82 °C.
For `O=C(O)C1=Cc2ccc(C(F)(F)F)cc2Oc2ccccc21`, the melting point was 180 °C.
`C[C@H](Nc1ncnc2[nH]cnc12)c1oc2ccccc2c(=O)c1-c1ccccc1` gave a melting point of 135 to 138 °C.
Compound `Cc1cccc(-n2c(-c3cc(-c4ccncc4)c(N4CCOCC4)s3)nc3ccccc3c2=O)c1` has a melting point of 230 to 232 °C.
